Experimental data: patent US20230407243A1, “GENETIC PLATFORM TO INVESTIGATE THE FUNCTIONS OF BACTERIAL DRUG EFFLUX PUMPS” (priority 2022, published 2023)
Like-named read-outs stand apart in the source and are kept apart here.

Tests used:
Format in all cases: cell-based, Escherichia coli
[1] = tested on: EKO-35 araC::acrD; assay: MIC susceptibility profiling, efflux platform; conditions: EKO-35 araC::acrD compared to EKO-35
Method in brief: (§1)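 MHB II broth microdilution; inoculum from 18 h LB culture, PBS-adjusted to OD600 ~1.0, then 1/2000 dilution. Compounds 2-fold titrated, duplicates, DMSO solvent control. 18 h, 37 °C, 900 rpm; background-corrected OD600 end point.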

[2] = tested on: EKO-35 araC::mexCD (MexCD from P. aeruginosa); assay: MIC susceptibility profiling, efflux platform
Method in brief: as §1

[3] = tested on: EKO-35 araC::acrB; assay: MIC susceptibility profiling, efflux platform
Method in brief: as §1

[4] = tested on: EKO-35 araC::emrKY; assay: MIC susceptibility profiling, efflux platform
Method in brief: as §1

[5] = tested on: EKO-35 araC::mdtEF; assay: MIC susceptibility profiling, efflux platform
Method in brief: as §1

[6] = tested on: EKO-35 araC::acrBD408A; assay: MIC susceptibility profiling, efflux platform
Method in brief: as §1

[7] = tested on: EKO-35 araC::mdtBC; assay: MIC susceptibility profiling, efflux platform
Method in brief: as §1

[8] = tested on: EKO-35
Protocol: (§2) Synergy measurement using checkerboard analysis was performed in 96-well microtiter plates using the microdilution broth method, according to CLSI guidelines (Patel J. B., 2015). The cell inocula were prepared using the colony resuspension method. The minimum inhibitory concentrations (MICs) were defined as the lowest concentration that provided no growth, as determined by measurement of the OD600nm using a Synergy H1 microplate reader (BioTek). Susceptibility testing was performed in MHB II with a final volume of 100 μL. PAI3N (Bachem Americas) was solubilized in MHB II. […] Solvent controls were included in each plate.
(§3) The Fractional Inhibitory Concentration Index (FICI) was used to assess the synergy of PAI3N in combination with different antibiotics. The FICI represents the ΣFIC of each drug. The FICI for each drug was calculated using the following formula: FICI=FICA+FICB=(CA/MICA)+(CB/MICB). Where MICA and MICB are the MICs of drugs A (PAI3N/NMP) and B (antibiotic) alone, and CA and CB are the MICs of the drugs in combination. The effects of PAβN or NMP in combination with antibiotics were classified as: synergistic (FICI<0.5), additive (FICI>0.5-1.0), indifferent (FICI>1.0-2.0), and antagonistic (FICI>2.0). Fold increases in resistance provided by efflux pumps were calculated by dividing the MIC values of strains expressing efflux pumps by the MIC value of EKO-35.

[9] = tested on: EKO-35 acrBD408A
Protocol: as §2, §3

[10] = tested on: ΔtolC
Protocol: as §2, §3

[11] = tested on: wild-type E. coli K-12
Protocol: as §2, §3

[12] = strain EKO-35, NMP + antibiotic
[13] = EKO-35 acrBD408A, NMP + antibiotic
[14] = EKO-35 acrBD408A, PAβN + antibiotic
[15] = strain EKO-35 acrBD408A, NMP + antibiotic

For `CC(=O)O[C@H]1C[C@@]2(C)[C@@H](C[C@@H](O)[C@H]3[C@@]4(C)CC[C@@H](O)[C@@H](C)[C@@H]4CC[C@@]32C)/C1=C(\CCC=C(C)C)C(=O)O` [fusidic acid], the “Fold change of MICs” value [1] was 32 fold, the “Fold change of MICs” value ([2]; EKO-35 araC::mexCD compared to EKO-35) was 4 fold and the MIC ([2]; Table 13B, non-porinated, technical duplicate, read-out: Minimum Inhibitory Concentration, EKO-35 araC::mexCD) was 12.5 µg/mL. The “Fold change of MICs” value ([3]; EKO-35 araC::acrB compared to EKO-35) was 128 fold, the MIC ([3]; Escherichia coli, Table 13A, non-porinated, technical duplicate, read-out: Minimum Inhibitory Concentration, EKO-35 araC::acrB) was 400 µg/mL and the “Fold change of MICs” value ([4]; EKO-35 araC::emrKY compared to EKO-35) was 1 fold. The MIC ([4]; Escherichia coli, Table 13B, non-porinated, technical duplicate, read-out: Minimum Inhibitory Concentration, EKO-35 araC::emrKY) was 3.12 µg/mL, the “Fold change of MICs” value ([5]; EKO-35 araC::mdtEF compared to EKO-35) was 16 fold and the MIC ([5]; Escherichia coli, Table 13A, non-porinated, technical duplicate, read-out: Minimum Inhibitory Concentration, EKO-35 araC::mdtEF) was 50 µg/mL. For the same compound, the “Fold change of MICs” value ([6]; EKO-35 araC::acrBD408A compared to EKO-35) was 1 fold, the MIC ([6]; Escherichia coli, Table 13B, non-porinated, technical duplicate, read-out: Minimum Inhibitory Concentration, EKO-35 araC::acrBD408A) was 3.12 µg/mL and the “Fold change of MICs” value ([7]; EKO-35 araC::mdtBC compared to EKO-35) was 2 fold. For the same compound, the MIC ([7]; Escherichia coli, Table 13B, non-porinated, technical duplicate, read-out: Minimum Inhibitory Concentration, EKO-35 araC::mdtBC) was 6.25 µg/mL, the Effect ([8]; EKO-35, NMP + antibiotic) was “Additive” and the FICI ([8]; EKO-35, NMP + antibiotic) was 0.625. For the same compound, the Effect ([8]; EKO-35, PAβN + antibiotic) was “Synergistic”, the FICI ([8]; EKO-35, PAβN + antibiotic) was 0.158 and the “MICb Alone” value ([8]; EKO-35, antibiotic alone (PAβN checkerboard)) was 4 µg/mL. The “MICb Combined” value ([8]; EKO-35, antibiotic in combination with PAβN) was 0.13 µg/mL, the “interaction of PAβN in combination with the labelled antibiotic (FICI)” value ([8]; efflux-deficient strains EKO-35, EKO-35 acrBD408A, ΔtolC) was “synergized” and the Effect [8, 12] was “Additive (additive (FICI >0.5-1.0))”. The FICI [8, 12] was 0.625, the “MICb Alone” value ([8]; strain EKO-35, antibiotic alone) was 4 µg/mL and the “MICb Combined” value ([8]; strain EKO-35, antibiotic in combination with NMP) was 0.5 µg/mL. For the same compound, the Effect [9, 13] was “Synergistic”, the FICI [9, 13] was 0.500 and the Effect [9, 14] was “Synergistic”. The FICI [9, 14] was 0.250, the “MICb Alone” value ([9]; EKO-35 acrBD408A, antibiotic alone (PAβN checkerboard)) was 4 µg/mL and the “MICb Combined” value ([9]; EKO-35 acrBD408A, antibiotic in combination with PAβN) was 0.5 µg/mL. The Effect [9, 15] was “Synergistic (Synergy (FICI ≤0.5))”, the FICI [9, 15] was 0.500 and the “MICb Alone” value ([9]; strain EKO-35 acrBD408A, antibiotic alone) was 4 µg/mL. For the same compound, the “MICb Combined” value ([9]; strain EKO-35 acrBD408A, antibiotic in combination with NMP) was 1 µg/mL, the Effect ([10]; strain ΔtolC, NMP + antibiotic) was “Additive (additive (FICI >0.5-1.0))” and the FICI ([10]; strain ΔtolC, NMP + antibiotic) was 0.625. For the same compound, the “MICb Alone” value ([10]; strain ΔtolC, antibiotic alone) was 4 µg/mL, the “MICb Combined” value ([10]; strain ΔtolC, antibiotic in combination with NMP) was 0.5 µg/mL and the Effect ([10]; ΔtolC, NMP + antibiotic) was “Additive”. The FICI ([10]; ΔtolC, NMP + antibiotic) was 0.625, the Effect ([10]; ΔtolC, PAβN + antibiotic) was “Synergistic” and the FICI ([10]; ΔtolC, PAβN + antibiotic) was 0.375. For the same compound, the “MICb Alone” value ([10]; ΔtolC, antibiotic alone (PAβN checkerboard)) was 2 µg/mL, the “MICb Combined” value ([10]; ΔtolC, antibiotic in combination with PAβN) was 0.25 µg/mL and the Effect ([11]; K-12, NMP + antibiotic) was “Synergistic”. The FICI ([11]; K-12, NMP + antibiotic) was 0.375, the Effect ([11]; K-12, PAβN + antibiotic) was “Synergistic” and the FICI ([11]; K-12, PAβN + antibiotic) was 0.156. The “MICb Alone” value ([11]; K-12, antibiotic alone (PAβN checkerboard)) was 1024 µg/mL, the “MICb Combined” value ([11]; K-12, antibiotic in combination with PAβN) was 32 µg/mL and the Effect ([11]; strain K-12, NMP + antibiotic) was “Synergistic (Synergy (FICI ≤0.5))”. The FICI ([11]; strain K-12, NMP + antibiotic) was 0.375, the “MICb Alone” value ([11]; strain K-12, antibiotic alone) was 1024 µg/mL and the “MICb Combined” value ([11]; strain K-12, antibiotic in combination with NMP) was 128 µg/mL.
